The source of these data is PubChem BioAssay AID2744 (NMMLSC, 2010).

Usually EC50 stands for the concentration at which the effect is half-maximal.

Calls of active or inactive are those of the source.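 The calls were made as follows: active = fitted half-maximal concentration for changing reporter fluorescence at or below a set limit; inactive = the rest.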

The target in this experiment is Citrate synthase, peroxisomal (Saccharomyces cerevisiae (strain ATCC 204508 / S288c)) (UniProt P08679). Nature of the experiment: yeast TOR pathway CIT2-GFP reporter potency – flow cytometry, MLPCN hits, dose response (AID 2744). To be noted: S. cerevisiae CIT2-GFP strain, 3 h; for GFP fluorescence, higher = induction: at 33 µM (top of the series); for EC50: flow cytometry fluorescence. In general terms: A flow cytometer gives signals particle by particle.
Sequence of Citrate synthase, peroxisomal (Saccharomyces cerevisiae (strain ATCC 204508 / S288c)) (P08679 whole entry, looked up): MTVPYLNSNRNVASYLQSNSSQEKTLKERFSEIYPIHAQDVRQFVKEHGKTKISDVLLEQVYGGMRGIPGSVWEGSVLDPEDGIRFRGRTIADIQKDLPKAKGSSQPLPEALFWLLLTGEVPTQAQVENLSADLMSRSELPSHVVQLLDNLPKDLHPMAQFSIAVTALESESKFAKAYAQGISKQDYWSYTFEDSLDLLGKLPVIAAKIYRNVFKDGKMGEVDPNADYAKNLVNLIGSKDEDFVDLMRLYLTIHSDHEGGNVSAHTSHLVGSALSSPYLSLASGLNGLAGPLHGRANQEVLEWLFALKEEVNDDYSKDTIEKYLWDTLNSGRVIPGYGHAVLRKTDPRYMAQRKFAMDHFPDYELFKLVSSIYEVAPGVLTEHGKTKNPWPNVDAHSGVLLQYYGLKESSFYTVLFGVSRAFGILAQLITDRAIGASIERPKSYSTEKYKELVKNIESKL

Regarding `O=C(NC(=S)NNC(=O)c1cnccn1)c1ccc(F)cc1`, the “GFP fluorescence, higher = induction” value was “inactive”. With `O=C(c1ccc(C(=O)N2CCCc3ccccc32)s1)N1CCCc2ccccc21`, the “GFP fluorescence, higher = induction” value was “inactive”.

Consider `CC(=O)Oc1ccc(/C=c2\sc3ncnn3c2=O)cc1`, for which the “GFP fluorescence, higher = induction” value was “inactive”. With `CCCc1cc(N2CCN(c3ccccn3)CC2)n2nc(C)c(-c3ccccc3)c2n1`, the “GFP fluorescence, higher = induction” value is “inactive”. Regarding `Cc1c(N2C(=O)/C(=C\c3ccccc3O)SC2=S)c(=O)n(-c2ccccc2)n1C`, the “GFP fluorescence, higher = induction” value is “inactive”.

As to `COc1ccc2c(c1)c(/C=C/c1cc[n+](C)cc1)cn2C`, the “GFP fluorescence, higher = induction” value was “inactive”. Consider `N/C(=N\OC(=O)c1ccccc1Cl)c1ccc(Cl)cc1`, for which the EC50 was 6.14 µM.

`COc1ccc(C(=O)NNC(=S)NC(=O)/C=C/c2cccs2)cc1`: the “GFP fluorescence, higher = induction” value is “inactive”.

Consider `Cc1ccc(/C=C/C(=O)c2ccc([N+](=O)[O-])o2)cc1`, for which the “GFP fluorescence, higher = induction” value was “inactive”. Consider `O=C(Oc1oc(-c2ccco2)nc1C=Nc1ccccc1)c1ccco1`, for which the “GFP fluorescence, higher = induction” value was “inactive”. On to `O=C1C=C(c2ccccc2)C(=O)N1Nc1ccccc1`, for which the “GFP fluorescence, higher = induction” value was “inactive”. On to `COc1ccc(C2=CC3=C(Br)C(=O)C(C)(O)C(=O)C3=CO2)cc1` (stereo unspecified), for which the “GFP fluorescence, higher = induction” value was “inactive”.

In the case of `O=c1cc(-c2ccccc2)cc(-c2ccccc2)n1O`, the “GFP fluorescence, higher = induction” value was “inactive”.

For `CC(c1ccccc1)N1C(=O)/C(=C/c2ccncc2)SC1=S` (stereo unspecified), the “GFP fluorescence, higher = induction” value was “inactive”. As for `O=C(/C=C/c1ccc(Br)cc1)NC(=S)NNC(=O)c1ccco1`, the “GFP fluorescence, higher = induction” value was “inactive”. Take `Cc1ccsc1/C=C1\C(=O)NC(=S)N(C)C1=O`: the “GFP fluorescence, higher = induction” value was “inactive”.

For `Cn1c(=O)c(C(=O)NNC(=O)c2ccc(Br)cc2)c(O)c2ccccc21`, the “GFP fluorescence, higher = induction” value is “inactive”. On to `Cc1cc(S(=O)(=O)ON2C(=O)c3ccccc3C2=O)ccc1F`, for which the “GFP fluorescence, higher = induction” value is “inactive”. On to `O=C(CCc1ccccc1)NNC(=S)NC(=O)c1ccccc1`, for which the “GFP fluorescence, higher = induction” value is “inactive”.

On to `Cc1cc2ccccn2c1C(=O)c1ccc([N+](=O)[O-])o1`, for which the “GFP fluorescence, higher = induction” value is “inactive”. Turning to `COc1ccc(NC(=O)/C(Cl)=C(/Cl)S(=O)Cc2ccccc2)cn1` (stereo unspecified), the “GFP fluorescence, higher = induction” value was “inactive”.

Take `CCC1(c2ccccc2)ON(c2c(Br)cccc2Br)C1=O` (stereo unspecified): the “GFP fluorescence, higher = induction” value was “inactive”. `COc1ccc([C@@]2(C(C)C)ON(c3ccccc3C(F)(F)F)C2=O)cc1`: the “GFP fluorescence, higher = induction” value is “inactive”.

On to `CCCCC1OC23CCCCC2C(C#N)(C(=N)O3)C1(C#N)C#N` (stereo unspecified), for which the “GFP fluorescence, higher = induction” value was “inactive”. As for `COc1ccc(C=C2C(=O)c3ccccc3C2=O)cc1O`, the “GFP fluorescence, higher = induction” value is “inactive”. Take `COc1cc(/C=C/c2ccc3c(Br)cc(Br)c(O)c3n2)ccc1O`: the “GFP fluorescence, higher = induction” value is “inactive”. Consider `CCN(CC)C(=S)SSC(=S)N(CC)CC`, for which the “GFP fluorescence, higher = induction” value was “inactive”. As to `CCOC(=O)C1=C(O)c2ccccc2C(=O)/C1=C\c1ccc(C)cc1`, the “GFP fluorescence, higher = induction” value was “inactive”. Same read-out and setting: in the case of `Cc1ccccc1N=Nc1ccc(O)c2ncccc12` it was “inactive”; in that of `O=C1c2ccccc2C(=O)N1OS(=O)(=O)c1ccccc1`, “inactive”.

Regarding `Cc1ccc(/C=C2\C(=O)NC(=S)N(c3ccccc3F)C2=O)s1`, the “GFP fluorescence, higher = induction” value is “inactive”. Turning to `O=C(c1ccccn1)c1conc1C(=O)c1ccc(Br)cc1`, the “GFP fluorescence, higher = induction” value is “inactive”.

`CC(=O)NN1C(=O)/C(=C/c2ccc(Br)o2)SC1=S`: the “GFP fluorescence, higher = induction” value was “inactive”. On to `Cc1ccccc1N1C(=O)C(Cl)=C(N2CCN(c3ccccc3)CC2)C1=O`, for which the “GFP fluorescence, higher = induction” value is “inactive”. Still for that read-out and setting: the entry for `Cc1ccc(NN2C(=O)C=C(c3ccc(Cl)cc3)C2=O)cc1` is “inactive”; for `COc1cccc2cc(-c3nc4ccccc4o3)c(=O)oc12` it is “inactive”. On the same count and under the same terms, the entry for `NC(=O)COc1ccc(C(=O)/C=C2/C(=O)Nc3ccccc32)cc1` is “inactive”; for `N#C/C(=C\c1cc(Br)ccc1F)C(=O)NC1CC1` it is “inactive”; for `O=C(c1ccccc1)c1ccccc1N1C(=O)C=CC1=O` it is “inactive”.

Take `CC(C)(C)n1nc(-c2ccc(F)cc2)c2c(N)ncnc21`: the “GFP fluorescence, higher = induction” value is “inactive”.

For `Oc1ccc(N=Nc2ccccc2)o1`, the “GFP fluorescence, higher = induction” value was “inactive”.

Take `COc1cc(N2C(=O)C=CC2=O)c(OC)cc1Cl`: the “GFP fluorescence, higher = induction” value was “inactive”.

On to `O=C(Oc1ccnc2cc(Cl)ccc12)N1CCCCCC1`, for which the “GFP fluorescence, higher = induction” value was “inactive”.

As to `O=C1CC(c2ccccc2)=NN1c1nc(-c2ccccc2)cs1`, the “GFP fluorescence, higher = induction” value is “inactive”. With `CCOc1ccc(C(Nc2cccnc2)c2cc(Cl)c3cccnc3c2O)cc1` (stereo unspecified), the “GFP fluorescence, higher = induction” value was “inactive”. On the same count and under the same terms, in the case of `CC(C)(C)c1nnc(N/N=C/c2cc(Br)ccc2O)n(N)c1=O` it was “inactive”; in that of `Cc1cc(C(=O)Nc2nc(-c3ccccn3)cs2)ccc1[N+](=O)[O-]`, “inactive”; in that of `Oc1c(CN2CCN(c3ccc(F)cc3)CC2)cc(Cl)c2cccnc12`, “inactive”.

`Cc1[nH][nH]c(=O)c1C(c1ccc(-c2ccc(Cl)c(Cl)c2)o1)c1c(C)[nH][nH]c1=O`: the “GFP fluorescence, higher = induction” value was “inactive”. For `O=C(OCn1ncc(Br)c(Br)c1=O)c1ccc(F)cc1`, the “GFP fluorescence, higher = induction” value was “inactive”. As to `COc1ccc(N=Nc2ccc(O)c3ncccc23)cc1`, the “GFP fluorescence, higher = induction” value was “inactive”. Regarding `COc1ccccc1N1C(=O)c2cccc3c(C(=O)O)ccc(c23)C1=O`, the “GFP fluorescence, higher = induction” value was “inactive”. On to `COc1ccc(C2=CC(=O)N(Nc3ccccc3)C2=O)cc1`, for which the “GFP fluorescence, higher = induction” value was “inactive”. `O=[N+]([O-])c1cc(Cl)c2cccnc2c1O`: the “GFP fluorescence, higher = induction” value is “inactive”. Still for that read-out and setting: in the case of `COc1ccc(/C=C2/C(=O)ON=C2c2ccccc2)cc1OC` it was “inactive”; in that of `CCCc1nnc(NC(=O)c2c(O)c3cccc4c3n(c2=O)CCC4)s1`, “inactive”. Same read-out and setting: the entry for `Cc1ccc(NC(=O)c2nc(S(=O)(=O)Cc3ccccc3)ncc2Cl)cc1` is “inactive”; for `Cc1ccc(S(=O)(=O)Cc2cc(F)c([N+](=O)[O-])cc2[N+](=O)[O-])cc1` it is “inactive”. Regarding `CC1=C(C)/C(=N\OS(=O)(=O)c2ccc(C)cc2)C=CC1=O`, the “GFP fluorescence, higher = induction” value is “inactive”. Take `COc1ccc(/C=C/C(=O)c2cc(Br)ccc(=O)c2O)cc1`: the “GFP fluorescence, higher = induction” value was “inactive”.

Consider `C[C@@H]1C[C@@H]([C@H](O)CC2CC(=O)NC(=O)C2)C(=O)[C@@H](C)C1`, for which the “GFP fluorescence, higher = induction” value was “inactive”. For the compound `C=CCN1C(=O)/C(=C/c2cccs2)C(=O)NC1=S`, the “GFP fluorescence, higher = induction” value is “inactive”. For the compound `COc1ccc(-c2cc(C(F)(F)F)nc(S(C)(=O)=O)n2)cc1`, the “GFP fluorescence, higher = induction” value is “inactive”.

With `O=[N+]([O-])c1ccc(S(=O)(=O)c2ccccc2)nc1`, the “GFP fluorescence, higher = induction” value was “inactive”. Consider `Oc1c(I)cc(Cl)c2cccnc12`, for which the “GFP fluorescence, higher = induction” value was “inactive”. Take `N/C(Cc1ccc(Cl)cc1)=N\OC(=O)c1ccccc1`: the EC50 is 3.35 µM. In the case of `C#CCOc1c(Br)cc(/C=C2/C(=O)ON=C2C)cc1OC`, the “GFP fluorescence, higher = induction” value is “inactive”. Regarding `CC(=O)OC[C@]12CC[C@H]3[C@@](C)(CC[C@H]4C(C)(C)CCC[C@]34C)[C@@H]1C[C@H](C1=CC(=O)O[C@@H]1OC(C)=O)O2`, the “GFP fluorescence, higher = induction” value was “inactive”. For `CC(=O)N(C(C)=O)c1ncnc2c1c(-c1ccc(Cl)cc1)nn2C(C)(C)C`, the “GFP fluorescence, higher = induction” value was “inactive”. As for `CCCOc1ccc(C(=O)NNC(=S)NC(=O)c2ccco2)cc1`, the “GFP fluorescence, higher = induction” value was “inactive”. Regarding `Cc1ccc(C(=O)NNC(=S)NC(=O)COc2ccccc2)cc1`, the “GFP fluorescence, higher = induction” value was “inactive”. Turning to `COc1ccc(C(=O)NC(=S)NNC(=O)CCc2ccccc2)cc1`, the “GFP fluorescence, higher = induction” value was “inactive”. `CC(C)CC(=O)NC(=S)Nc1nc(-c2ccccc2)cs1`: the “GFP fluorescence, higher = induction” value was “inactive”.

`C/C(=N\NC(=O)c1cccc(Br)c1)c1ccccn1`: the “GFP fluorescence, higher = induction” value is “inactive”. Take `O=C1C(Cl)=C(Nc2ccccc2O)C(=O)N1c1ccccc1`: the “GFP fluorescence, higher = induction” value was “inactive”.

As for `Cc1cc(NC(=O)c2cccnc2Cl)ccc1NC(=O)c1cc2ccccc2o1`, the “GFP fluorescence, higher = induction” value was “inactive”. On the same count and under the same terms, the entry for `Cc1cccnc1Nc1nc(-c2ccccn2)cs1` is “inactive”; for `O=S(=O)(c1ccccc1)c1ccc(C(F)(F)F)cn1` it is “inactive”; for `O=C(/C=C/c1cccc(Cl)c1)c1nc2ccccc2[nH]1` it is “inactive”.

For `CC1=C(C)/C(=N\OS(=O)(=O)c2ccccc2)C=CC1=O`, the “GFP fluorescence, higher = induction” value was “inactive”.

As to `Nc1ccc2ccc3cccc[n+]3c2c1`, the “GFP fluorescence, higher = induction” value is “inactive”. Take `O=C1Nc2ccccc2/C1=C\C(=O)c1ccccc1`: the “GFP fluorescence, higher = induction” value is “inactive”.

In the case of `Cc1cc(=O)oc2cc(Oc3ccc([N+](=O)[O-])cc3C(F)(F)F)ccc12`, the “GFP fluorescence, higher = induction” value is “inactive”. For `CN(C)C(=O)Oc1ccnc2cc(Cl)ccc12`, the “GFP fluorescence, higher = induction” value was “inactive”. As to `CCCc1cc(=O)oc2cc(C)cc(OCC(=O)NC3CC3)c12`, the “GFP fluorescence, higher = induction” value was “inactive”. With `Cc1ccc(N2C(=O)CC(Sc3ncn[nH]3)C2=O)cc1C` (stereo unspecified), the “GFP fluorescence, higher = induction” value is “inactive”.
